Like-named read-outs stand apart in the source and are kept apart here.

The test system of assay [1] is NO production induced by LPS in BV2 cells. In words: Inhibition of NO production in LPS-induced BV2 microglial cells (Griess reagent). Format: cell-based. The settings on record: compound test concentrations 3.125 to 100 μM, mean ± SD (n = 3), read-out: IC50 NO Inhibitory. The procedure: (§1) BV2 microglia cells were purchased from iCell Bioscience Inc. (Shanghai, China). The cells were grown at 37 °C in a humid environment with 5% CO2. In DMEM with 10% fetal bovine serum and 1% penicillin-streptomycin solution, they were maintained alive. The following assays were carried out while the cells were in the exponential growth phase (subcultured 2–3 times).
To determine how much NO is produced, the literature was consulted. Equal parts of the Griess reagent (1% sulfanilamide and 0.1% N-(1-naphthyl) ethylenediamine dihydrochloride in 2.5% phosphoric acid) were combined with the sample-treated cell culture medium for 5 min at room temperature and in the dark. It was determined that the absorbance was at 540 nm using a microplate reader. The trials were conducted simultaneously in triplicate.

Assay [2] has as its system BV2 microglial cells. The assay is described as follows: CCK8 cytotoxic activity in BV2 microglial cells. Format: cell-based. The settings on record: Mus musculus, BV-2, CCK8, LPS 1 μg/mL 24 h, compound test concentrations 3.125 to 100 μM, read-out: IC50 Cell Viability. The procedure: as §1
The cytotoxic activity was assessed using the CCK8 test. In a 96-well plate, BV2 microglial cells (5 × 10^4 cells/well) were placed in each well and incubated for 12 h. After one hour with each substance, LPS (1 μg/mL) was applied to the BV2 microglia cells for an additional 24 h. The CCK8 solution was then incubated with BV2 cells for 1 h at 37 °C. The absorbance at 450 nm was measured using a plate reader (Molecular Devices, San Jose, CA, USA). The cells that had not been treated were assumed to have a 100% optical density.

Assay [3] is described as follows: Body weight growth rate of CUMS rats. Format: in vivo, Male Sprague-Dawley (SD) rats. The settings on record: 5 weeks, HFPE, HFFE 25 mg/kg, fluoxetine 10 mg/kg, gastric gavage. The method, then: (§2) The Animal Ethics Committee of Shenyang Pharmaceutical University has approved all animal testing (no. SYPU-IACUC-S2021-03-03-202). Male Sprague-Dawley (SD) rats weighing 180–200 g were supplied by Central Animal House of Shenyang Pharmaceutical University (Shenyang, China). […] They were also provided water and a regular food. Before the actual trials start, the rats should acclimate to their new environment for seven days.
(§3) A baseline test was conducted as described below before grouping. Rats were divided into five groups of 10 depending on their weight and sucrose preference. The model group, fluoxetine (10 mg/kg) group, HFPE (25 mg/kg) group, and HFFE (25 mg/kg) group were the four treatment groups using CUMS procedures. An untouchable control group was used. Based on what had been reported in the pharmacological literature the HFPE and HFFE dosages were selected. Two hours before to the daily CUMS procedure and behavioral testing, the rats received the appropriate solutions. All of the medications were administered through gastric gavage at a volume of 3 mL/kg of body weight and dissolved in sodium carboxymethylcellulose (CMC-Na) at a concentration of 0.3%. Days 76–79, 80, and 81 after the final dosage of the medication, respectively, saw the completion of the SPT, OFT, and FST. […]
(§4) Body weights were recorded every week. […]

In assay [4] the test system is CUMS rats. In words: Sucrose preference test (SPT) in CUMS rats. Format: in vivo, Male Sprague-Dawley (SD) rats. The following applies: after five weeks of administration by gastric gavage, HFPE, HFFE 25 mg/kg, fluoxetine 10 mg/kg, model group 64.44%. The method, then:
as §2
(§5) A baseline test was conducted as described below before grouping. Rats were divided into five groups of 10 depending on their weight and sucrose preference. The model group, fluoxetine (10 mg/kg) group, HFPE (25 mg/kg) group, and HFFE (25 mg/kg) group were the four treatment groups using CUMS procedures. An untouchable control group was used. Based on what had been reported in the pharmacological literature the HFPE and HFFE dosages were selected. Two hours before to the daily CUMS procedure and behavioral testing, the rats received the appropriate solutions. […]
as §4
The SPT is used to evaluate rodent behavior associated with a human clinical symptom of depression by evaluating the capacity to seek pleasure. […] After that, the amount of liquids consumed was recorded. […]

Assay [5] deals with CUMS rats. The assay is described as follows: Forced swimming test (FST) in CUMS rats. Format: in vivo, Male Sprague-Dawley (SD) rats. The settings on record: HFPE, HFFE 25 mg/kg, fluoxetine 10 mg/kg, compared with CUMS model group. The method, then: as §2
as §3, with “0.3%.” for “0.3%. Days 76–79, 80, and 81 after the final dosage of the medication, respectively, saw the completion of the SPT, OFT, and FST.”
as §4
The FST protocol was carried out as described in previous literature. […] The time the rat’s immobility duration in the last five minutes of their six-minute swim in the bucket was recorded. […]

In assay [6] the test system is IL-1β. The assay is described as follows: IL-1β level in hippocampus of CUMS rats, ELISA. Format: in vivo, Male Sprague-Dawley (SD) rats. The following applies: after 5 weeks of therapy, HFPE, HFFE 25 mg/kg, fluoxetine 10 mg/kg. The method, then:
as §2, §5
(§6) The serum and hippocampal tissue of rats were taken. […] The optical density value was calculated after the reaction by setting the microtiter plate at 450 nm. The amount of CORT in the serum and the amounts of IL-6, IL-1β, and TNF-α in the hippocampus tissue were calculated using the standard curve.
(In general: An ELISA detects its analyte on a solid surface through an enzyme-linked reagent.)

Assay [7] deals with CUMS rats. The assay is described as follows: Open-field test (OFT) in CUMS rats. The settings on record: 5 min test, HFPE, HFFE 25 mg/kg, fluoxetine 10 mg/kg, compared with model group. Format: in vivo, Male Sprague-Dawley (SD) rats. The method, then: as §2, §5, §4
To assess the effects of HFPE and HFFE on exploratory behavior of rats administered CUMS, OFT carried out in the same manner as literature. Each rat was placed in its own square in the center of a black box that measured 100 cm × 100 cm × 40 cm. […] Both the crossing score and the rearing score for each animal were recorded. […]

Assay [8] relates to IL-6. In words: IL-6 level in hippocampus of CUMS rats, ELISA. The following applies: after 5 weeks of therapy, HFPE, HFFE 25 mg/kg, fluoxetine 10 mg/kg. Format: in vivo, Male Sprague-Dawley (SD) rats. The method, then: as §2, §5, §6
Assay [9] concerns TNF-α. The assay is described as follows: TNF-α level in hippocampus of CUMS rats, ELISA. Format: in vivo, Male Sprague-Dawley (SD) rats. The settings on record: after 5 weeks of therapy, HFPE, HFFE 25 mg/kg, fluoxetine 10 mg/kg. The method, then:
as §2, §5, §6

Setting [10] is: Mus musculus, BV-2, LPS-induced BV2 cells.

A word on the IC50: it is the concentration needed to halve the response being measured. As for `C[C@@H]1O[C@@H](OC[C@H]2O[C@@H](Oc3c(-c4ccc(O)cc4)oc4cc(O)cc(O)c4c3=O)[C@H](O)[C@@H](O)[C@H]2O)[C@H](O)[C@H](O)[C@H]1O` [Compound 34, kaempferol-3-O-α-L-rhamnopyranosyl-(1→6)-β-D-galactpyranoside], the IC50 in assay [1] (setting [10]) and in [2] was more than 100 µM in each case.

On to `C[C@@H]1O[C@@H](OC[C@H]2O[C@@H](Oc3c(-c4ccc(O)cc4)oc4cc(O)cc(O)c4c3=O)[C@H](O)[C@@H](O)[C@@H]2O)[C@H](O)[C@H](O)[C@H]1O` [Compound 35, kaempferol-3-O-α-L-rhamnopyranosyl-(1→6)-β-D-glucopyranoside], for which the 50% inhibitory concentration (IC50) in assay [1] (setting [10]) and in assay [2] was more than 100 µM throughout.

Turning to `C[C@@H]1O[C@@H](OC[C@H]2O[C@@H](Oc3c(-c4ccc(O)cc4)oc4cc(O)cc(O)c4c3=O)[C@H](O[C@@H]3O[C@@H](C)[C@H](O)[C@@H](O)[C@H]3O)[C@@H](O)[C@H]2O)[C@H](O)[C@H](O)[C@H]1O` [Compound 36, kaempferol-3-O-[α-L-rhamnopyranosyl-(1→6)]-[α-L-rhamnopyranosyl-(1→2)]-β-D-galactopyranoside], the IC50 in assay [1] (setting [10]) and in [2] was more than 100 µM each time.

As for `C[C@@H]1O[C@@H](OC[C@H]2O[C@@H](Oc3c(-c4ccc(O)cc4)oc4cc(O)cc(O)c4c3=O)[C@H](O[C@@H]3O[C@@H](C)[C@H](O)[C@@H](O)[C@H]3O)[C@@H](O)[C@@H]2O)[C@H](O)[C@H](O)[C@H]1O` [Compound 37, kaempferol-3-O-[α-L-rhamnopyranosyl-(1→6)]-[α-L-rhamnopyranosyl-(1→2)]-β-D-glucopyranoside], the half-maximal inhibitory concentration (IC50) in assay [1] (LPS-induced BV2 cells) is 96.1 ± 11.6 µM; in [1] (setting [10]), less than 100 µM; in assay [2], more than 100 µM.

With `COc1ccc2c(c1)c(CC(=O)O)c(C)n2C(=O)c1ccc(Cl)cc1` [Indomethacin, indomethacin, reference compound], the figures for the half-maximal inhibitory concentration (IC50) in assay [1] (setting [10]) and in assay [2] were 52.6 ± 4.58 µM and more than 100 µM, respectively.

In the case of `CNCCC(Oc1ccc(C(F)(F)F)cc1)c1ccccc1` (stereo not drawn) [fluoxetine], the “growth rate of body weight” value in [3] is “alleviate the reduction in body weight”. Moreover, the sucrose preference in assay [4] was 82.40%. Further, the FST immobility time entry in [5] is reported as “reduced immobility”. For the same compound, in assay [6], the “IL-1β level in hippocampus” value is “obviously reduced”. For the same compound, the “OFT rearing score (exploratory activity)” value in assay [7] is on record as “improved the rearing score”. Besides, the “IL-6 level in hippocampus” value in [8] is on record as “obviously reduced”. Besides, in assay [9], the “TNF-α level in hippocampus” value is “obviously reduced”.

The record behind these values is article PMC9502271, “An Investigation of the Anti-Depressive Properties of Phenylpropanoids and Flavonoids in Hemerocallis citrina Baroni” (Molecules, 2022).
